Measurements taken from patent US20260376293A1, “METHODS FOR STUDYING GPR158 PHARMACOLOGY AND IDENTIFICATION OF ITS LIGANDS” (UNIVERSITY OF FLORIDA RESEARCH FOUNDATION, INCORPORATED, priority 2022, published 2026).
Where “and” joins values, the source holds several entries; their conditions need not be identical. Equal entries are not always repeated.

Biological target: T1, GPR158-RGS7/Gβ5 complex (Homo sapiens, UniProt Q5T848)
T1 construct: substituting amino acids to alanine in full-length GPR158; expressed in transfected cells; host or cells: HEK293FT
T1 sequence (Q5T848 24-1215): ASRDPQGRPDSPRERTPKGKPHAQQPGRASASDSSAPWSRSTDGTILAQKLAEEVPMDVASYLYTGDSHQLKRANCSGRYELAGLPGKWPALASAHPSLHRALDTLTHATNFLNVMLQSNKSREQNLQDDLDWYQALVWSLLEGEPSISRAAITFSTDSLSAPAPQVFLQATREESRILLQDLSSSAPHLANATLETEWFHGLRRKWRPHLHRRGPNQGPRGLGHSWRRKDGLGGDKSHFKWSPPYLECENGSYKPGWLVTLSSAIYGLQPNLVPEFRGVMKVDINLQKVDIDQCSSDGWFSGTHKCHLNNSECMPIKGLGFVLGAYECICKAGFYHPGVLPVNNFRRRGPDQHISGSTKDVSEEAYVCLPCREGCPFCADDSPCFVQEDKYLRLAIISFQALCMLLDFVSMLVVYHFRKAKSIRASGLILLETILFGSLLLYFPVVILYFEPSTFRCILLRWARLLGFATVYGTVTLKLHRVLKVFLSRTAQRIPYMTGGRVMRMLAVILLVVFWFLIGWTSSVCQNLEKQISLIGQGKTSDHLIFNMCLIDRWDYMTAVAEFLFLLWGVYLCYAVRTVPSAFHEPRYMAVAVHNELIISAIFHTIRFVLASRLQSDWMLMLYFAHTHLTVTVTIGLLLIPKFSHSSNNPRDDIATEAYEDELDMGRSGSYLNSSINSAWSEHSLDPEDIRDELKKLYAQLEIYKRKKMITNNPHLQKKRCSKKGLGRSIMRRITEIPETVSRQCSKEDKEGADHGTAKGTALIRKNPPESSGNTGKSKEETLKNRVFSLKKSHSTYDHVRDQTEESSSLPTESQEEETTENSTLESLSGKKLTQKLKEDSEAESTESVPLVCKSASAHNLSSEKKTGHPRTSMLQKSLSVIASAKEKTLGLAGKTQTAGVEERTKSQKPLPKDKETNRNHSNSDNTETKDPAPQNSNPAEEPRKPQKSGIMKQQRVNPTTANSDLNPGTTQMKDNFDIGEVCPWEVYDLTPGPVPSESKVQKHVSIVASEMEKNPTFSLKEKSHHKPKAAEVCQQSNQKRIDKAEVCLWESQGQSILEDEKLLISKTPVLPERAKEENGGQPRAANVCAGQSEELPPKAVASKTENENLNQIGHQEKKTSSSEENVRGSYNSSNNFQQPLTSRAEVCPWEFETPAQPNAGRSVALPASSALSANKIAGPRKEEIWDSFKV
T1 sequence (P49802 1-495 partner): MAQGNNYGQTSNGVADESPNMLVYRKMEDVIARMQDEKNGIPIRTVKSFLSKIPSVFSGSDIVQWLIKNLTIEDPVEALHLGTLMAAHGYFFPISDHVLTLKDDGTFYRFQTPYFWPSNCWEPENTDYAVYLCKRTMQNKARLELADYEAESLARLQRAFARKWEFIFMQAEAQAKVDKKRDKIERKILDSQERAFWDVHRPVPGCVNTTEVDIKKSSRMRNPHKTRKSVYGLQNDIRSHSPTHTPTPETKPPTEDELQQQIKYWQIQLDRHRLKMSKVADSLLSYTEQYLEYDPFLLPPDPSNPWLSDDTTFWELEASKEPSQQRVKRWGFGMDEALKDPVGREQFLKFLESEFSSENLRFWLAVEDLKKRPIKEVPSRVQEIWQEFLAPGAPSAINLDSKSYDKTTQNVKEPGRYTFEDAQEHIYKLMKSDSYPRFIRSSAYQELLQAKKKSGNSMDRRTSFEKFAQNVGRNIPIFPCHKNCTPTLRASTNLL
T1 sequence (O14775 1-395 partner): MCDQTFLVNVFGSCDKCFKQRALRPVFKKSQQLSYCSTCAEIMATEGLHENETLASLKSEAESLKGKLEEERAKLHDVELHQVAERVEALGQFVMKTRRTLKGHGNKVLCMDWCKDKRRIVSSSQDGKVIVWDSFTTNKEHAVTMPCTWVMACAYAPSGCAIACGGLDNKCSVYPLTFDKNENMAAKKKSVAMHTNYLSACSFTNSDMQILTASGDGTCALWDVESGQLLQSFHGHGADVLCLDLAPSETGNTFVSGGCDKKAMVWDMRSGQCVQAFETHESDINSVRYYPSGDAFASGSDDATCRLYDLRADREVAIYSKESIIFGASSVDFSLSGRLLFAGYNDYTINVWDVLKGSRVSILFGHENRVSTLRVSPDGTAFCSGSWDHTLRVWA
Test: BRET GAP assay, Gαo deactivation (KGAP)
Format: cell-based
Settings: for IC50: GPR158/RGS7/Gβ5, Gαo, D2R, n=4 in triplicate, mean±s.e.m., read-out: IC50 (change in GAP activity, KGAP)
Protocol: FIGS. 3A-3D. Effect of taurine on Gαo deactivation mediated by GPR158-RGS7/Gβ5 complex. A and B) Representative traces of BRET signal showing Gαo activation mediated by D2R upon application of dopamine (100 μM) at t=0 s and Gαo deactivation triggered by injection of haloperidol (100 μM) at t=15 s (arrow). Time courses were examined without or with taurine (100 μM) incubation in mock transfected cells or cells transfected with GPR158. C) Quantification of deactivation time constant of the reactions presented in 3A and 3B. 1/τ is calculated from deactivation curves of 5 independent experiments each performed in triplicate for each transfection condition. Data shown represent mean±s.e.m. ****p<0.0001, ns=p>0.05 (two-way ANOVA). Columns with no fill (Mock), columns with dotted fill (Taurine) D) Dose response profile of changes in GAP activity (KGAP) calculated by subtracting the baseline deactivation rate (1/τ) from the rate of the reaction in the presence of the GPR158/RGS7/Gβ5. […] Data shown represent mean±s.e.m of 4 independent experiments each conduced in triplicate.
FIGS. 4A-4E. Glycine slows deactivation of Gαo by GPR158-RGS7/Gβ5 complex A) Schematics of the BRET-based GAP assay. G proteins are activated at t=0 s by stimulating GPCR (D2R, 0.1 mM). After reaching steady state the GPCR activity is terminated by injection of haloperidol (0.1 mM) at t=15 s (arrow). G protein deactivation is then monitored by dissociation of the Venus-Gβγ from masGRK3ct-Nluc reporter which occurs upon GTP hydrolysis by Gαo quenching the BRET signal. B and C) Representative traces of BRET signal showing Gαo activation and deactivation time course with or without glycine (100 μM) treatment in cells without GPR158 (b) or cells transfected with GPR158 (c). D) Quantification of deactivation time constant of the reactions presented in panels b and c. 1/τ is calculated from deactivation curves of n=5 independent experiments in triplicate from each cell transfection group. Data shown represent mean±s.e.m. ****p<0.0001, ns, p>0.05 (two-way ANOVA). Columns with no fill (Mock), columns with dotted fill (Glycine), columns with angled-line fill (Taurine) E) Dose response profile of changes in GAP activity (KGAP) calculated by subtracting the baseline deactivation rate (1/τ) from the rate of the reaction in the presence of the GPR158/RGS7/Gβ5. […] Data shown represent mean±s.e.m of n=4 independent experiments each conduced in triplicate.
To understand how glycine action on GPR158 regulates intracellular cAMP the inventors focused on GPR158 interaction with RGS7/Gβ5, an established GTPase Activating Protein (GAP) for the Gαi/o proteins (38) known to regulate cAMP production (39). The inventors used a well-established cell-based assay to monitor GAP activity by following kinetics of G protein deactivation (40) (FIG. 4A). In this assay, activation of G proteins by GDP/GTP exchange in response to GPCR stimulation generates the BRET signal upon interaction of liberated Venus-Gβγ subunits with the masGRK3CT-Nluc reporter.
Cellular measurements of BRET between Venus-Gβ1γ2 and masGRK3ct-Nluc were performed to examine GAP activity of RGS protein in living cells (described in detail in Masuho et al., 2015 (40)). Cells were co-transfected with the pcDNA3.1(+) plasmid coding for dopamine D2 receptor (1), GαoA (2), masGRK3ct-Nluc (1), Venus-156-239-Gβ1 (1), Venus-1-155-Gγ2 (1), and when indicated with RGS7/Gβ5 (2), GPR158 (1) (in parenthesis the ratio of transfected DNA). […]

| SMILES | potency of taurine as compared to glycine (GAP assay IC50 comparison) | IC50 | effect on Gαo deactivation (GPR158 co-expressed with RGS7/Gβ5, 100 μM) | effect on Gαo deactivation without GPR158 (baseline or RGS7/Gβ5 without GPR158, glycine 100 μM) |
| --- | --- | --- | --- | --- |
| NCCS(=O)(=O)O [taurine, 2-aminoethanesulfonic acid] | approximately two-fold lower potency | ~6 µM and 5.89 µM |  |  |
| NCC(=O)O [glycine] |  | ~3 µM and 2.93 µM | significantly decelerated Gαo deactivation | no effect on either baseline Gαo deactivation or RGS7/Gβ5-assisted process |
